Test results: US20100120769A1, “CYCLOHEXYL PIPERAZINYL METHANONE DERIVATIVES” (priority 2006, published 2010)
pKi: −log10 of the molar value.

Target: T1, histamine 3 receptor (H3R) (Homo sapiens, UniProt Q9Y5N1)
T1 construct: expressed in transfected cells; host or cells: CHO cells (HR3-CHO)
Experiment: Binding assay with 3H-(R)α-methylhistamine (competition binding, HR3-CHO membranes)
Details: membrane of the human HR3-CHO cell line, 3H(R)α-Methylhistamine 1 nM; Ki calculated from IC50 by Cheng-Prusoff
Description: Binding Assay with ^3H-(R)α-methylhistamine
Saturation binding experiments were performed using HR3-CHO membranes prepared as described in Takahashi, K, Tokita, S., Kotani, H. (2003) J. Pharmacol. Exp. Therapeutics 307, 213-218.
An appropriate amount of membrane (60 to 80 μg protein/well) was incubated with increasing concentrations of ^3H(R)α-Methylhistamine di-hydrochloride (0.10 to 10 nM). Non specific binding was determined using a 200 fold excess of cold (R)α-Methylhistamine dihydrobromide (500 nM final concentration). The incubation was carried out at room temperature (in deep-well plates shaking for three hours). The final volume in each well was 250 μl. The incubation was followed by rapid filtration on GF/B filters (pre-soaked with 100 μl of 0.5% PEI in Tris 50 mM shaking at 200 rpm for two hours). The filtration was made using a cell-harvester and the filter plates were then washed five times with ice cold washing buffer containing 0.5 M NaCl. After harvesting, the plates were dried at 55° C. for 60 min, then we added scintillation fluid (Microscint 40, 40 microl in each well) and the amount of radioactivity on the filter was determined in Packard top-counter after shaking the plates for two hours at 200 rpm at room temperature.
Binding Buffer: 50 mM Tris-HCl pH 7.4 and 5 mM MgCl2x6H2O pH 7.4. Washing Buffer: 50 mM Tris-HCl pH 7.4 and 5 mM MgCl2x6H2O and 0.5 M NaCl pH 7.4.
Indirect measurement of affinity of H3R inverse agonists: twelve increasing concentrations (ranging from 10 μM to 0.3 nM) of the selected compounds were always tested in competition binding experiments using membrane of the human HR3-CHO cell line. An appropriate amount of protein, e.g. approximately 500 cpm binding of RAMH at Kd, were incubated for 1 hour at room temperature in 250 μl final volume in 96-well plates in presence of ^3H(R)α-Methylhistamine (1 nM final concentration=Kd). […]
All compounds were tested at a single concentration in duplicates. […] Ki's were calculated from IC50 based on Cheng-Prusoff equation (Cheng, Y, Prusoff, W H (1973) Biochem Pharmacol 22, 3099-3108).

T1 sequence (Q9Y5N1 whole entry): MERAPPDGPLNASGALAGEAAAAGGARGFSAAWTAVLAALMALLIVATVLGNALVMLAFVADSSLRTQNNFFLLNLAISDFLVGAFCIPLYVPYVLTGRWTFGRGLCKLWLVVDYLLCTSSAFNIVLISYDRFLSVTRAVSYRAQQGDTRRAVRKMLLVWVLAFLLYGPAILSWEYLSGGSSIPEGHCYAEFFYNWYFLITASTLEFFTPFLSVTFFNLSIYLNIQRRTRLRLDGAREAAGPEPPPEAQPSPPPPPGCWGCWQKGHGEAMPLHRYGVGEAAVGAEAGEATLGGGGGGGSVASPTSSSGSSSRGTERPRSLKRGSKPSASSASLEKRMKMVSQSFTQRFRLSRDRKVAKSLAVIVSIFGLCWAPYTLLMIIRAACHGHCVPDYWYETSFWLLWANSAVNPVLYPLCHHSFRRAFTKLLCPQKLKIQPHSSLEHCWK

Row | pKi | Compound
1 | 7.28 | Cc1ccc(NC2CCC(C(=O)N3CCN(C(C)C)CC3)CC2)cc1 (stereo not drawn) [Example 1, (4-Isopropyl-piperazin-1-yl)-(4-p-tolylamino-cyclohexyl)-methanone]
2 | 7.06 | CC(C)N1CCN(C(=O)[C@H]2CC[C@H](NC(=O)c3ccc(Cl)cc3Cl)CC2)CC1 [Example 13, 2,4-dichloro-N-[trans-4-(4-isopropyl-piperazine-1-carbonyl)-cyclohexyl]-benzamide]
3 | 7.42 | CC(C)N1CCN(C(=O)[C@H]2CC[C@H](NC(=O)N(C)c3cccc(F)c3)CC2)CC1 [Example 32, 1-(3-fluoro-phenyl)-3-[trans-4-(4-isopropyl-piperazine-1-carbonyl)-cyclohexyl]-1-methyl-urea]
